# Assay results as given in patent US5245034A, “Compound having vessel smooth muscle relaxation activity” (Hidaka; Kiroyoshi, priority 1988, dated 1993).
# Like-named read-outs stand apart in the source and are kept apart here.
# Key:
# [1] = system: washed platelets; test: Platelet Agglutination Inhibition (P.A.), collagen-induced; format: cell-based, human (healthy person); conditions: Homo sapiens, read-out: P.A. (IC50)
# Protocol: To this suspension was added one sixth volume of ACD solution, and the whole was further centrifuged at 1500×G for 5 minutes to prepare a platelet pellet. The platelet pellet was then suspended in a modified HEPES Tyrode solution to obtain about 3×10^5 /μl in washed platelet suspension.
# To 270 μl of the washed platelet suspension was added 3 μl of a solution of a test compound dissolved in an appropriate medium in different concentration, and the mixture was pre-incubated at 37° C. for 2 minutes.
# As a control, the above-mentioned procedure was carried out except that the test medium without a test compound was used, and the absorbance before addition of collagen and the maximum absorbance after addition of collagen were measured, and the difference between both absorbances was taken as 100% agglutination.
# For test compound, the absorbance before an addition of collagen and the maximum absorbance after an addition of collagen were measured, and a percent of the inhibition was determined, compared with the control.
# [2] = system: superior mesenteric artery (contracted by potassium chloride); test: Vessel Smooth Muscle Relaxation Action (V.R.); format: cell-based, rabbit; conditions: Oryctolagus cuniculus, read-out: V.R. (ED50)
# Description: The specimen was suspended by loading a strain in Krebs-Henseleit solution through which an oxygen gas containing 5% carbon dioxide was bubbled. The specimen was contracted by adding potassium chloride to maintain a predetermined strain. Thereafter, a test compound was cumulatively administrated.
# [3] = biological target: Calmodulin-Dependent Phosphodiesterase (Ca^2+ PDE); test: Calmodulin-Dependent Phosphodiesterase Inhibition (Ca^2+ PDE); format: biochemical, rat; conditions: [^3 H]-cGMP, 30° C.
# Protocol: Phosphodiesterase (Ca^2+ PDE)Ca^2+ PDE was partially purified from the brain of rat by DEAE-Sepharose column chromatography.
# Calmodulin was purified from the calf brain using a calmodulin inhibitor W-7 affinity column.
# A reaction mixture contained 20 μl of 500 mM Tris-HCl (pH 8.0), 20 μl of 50 mM MgCl2, 20 μl of 2 mM CaCl2 (or 10 mM EGTA), 20 μl of 1 mg/ml bovine serum albumin, PDE, […] of calmodulin, test sample and distilled water to make total volume 200 μl. To the mixture was added 20 μl of 4 μM [^3 H]-cGMP (2.5 μCi/ml), the mixture was incubated at 30° C. for 15 minutes, and then heated in boiling water for 3 to 5 minutes to terminate the reaction, and cooled in ice-water bath. 20 μg of 5'-nucleotidase (Snake venum) was added to the mixture, and the mixture was again incubated at 30° C. for 10 minutes. After addition of about 2 ml of water, the sample was applied to a cation exchange resin column (Biorad AG.AG50W-X4 to adsorbe the [^3 H]-guanosine and additionally about 2 ml of washing water for the sample was added to the column. The column was washed with about 20 ml of water, and the adsorbed [^3 H]-guanosine was eluted with 3 ml of 3N NH4 OH, and the elute was directly received by a vial. After an addition of 10 ml of an emulsified scintillation solution (ACS-II, AMERSHAM) the radio activity was measured by a scintillation counter LS7500 (Beckmann). The enzyme activity in the presence of calmodulin was taken as […], and a concentration of a test compound in μM which provides a 50% inhibition was expressed as IC50.
# [4] = washed platelets, collagen, 37° C.
# [5] = concentration relaxing KCl-contracted strain to 50%, cumulative administration
Compound,"IC50 [1, 4]","EC50 [2, 5]",IC50 [3],EC50 [2],IC50 [1]
"Cc1ccc(S(=O)(=O)N(C)c2ccc(CC(C(=O)N3CCN(c4ccccc4)CC3)N(C)S(=O)(=O)c3cccc4cnccc34)cc2)cc1 (stereo not drawn) [Example 26, 1-{N-(5-isoquinolinesulfonyl)-N-methyl-p-[N'-methyl-N'-(p-toluenesulfonyl)amino]phenylalanyl}-4-phenylpiperazine]",10 µM,,,,
"O=C(OCc1ccccc1)N1CCN(C(=O)[C@H](Cc2ccc(O)cc2)NS(=O)(=O)c2cccc3cnccc23)CC1 [Example 29, 1-Benzyloxycarbonyl-4-[N-(5-Isoquinolinesulfonyl)Tyrosyl]Piperazine]",73 µM,7.6 µM,,,
"O=S(=O)(NC(Cc1ccc(O)cc1)CN1CCN(c2ncccn2)CC1)c1cccc2cnccc12 (stereo not drawn) [Example 40, N-{1-(p-hydroxybenzyl)-2-[4-(2-pyrimidyl)piperazinyl]ethyl}-5-isoquinolinesulfonamide]",4.7 µM,,,,
"CN(C(Cc1ccc(OS(=O)(=O)c2cccc3cnccc23)cc1)CN1CCN(c2ncccn2)CC1)S(=O)(=O)c1cccc2cnccc12 (stereo not drawn) [Example 41, N-{1-[p-(5-isoquinolinesulfonyloxy)benzyl]-2-[4-(2-pyrimidyl)piperazinyl]ethyl}-N-methyl-5-isoquinolinesulfonamide]",10 µM,1.8 µM,,,
"CN(C(Cc1ccc(O)cc1)CN1CCN(c2ccc(F)cc2)CC1)S(=O)(=O)c1cccc2cnccc12 (stereo not drawn) [Example 50, N-{1-(p-hydroxybenzyl)-2-[4-(p-fluorophenyl)piperazinyl]ethyl}-N-methyl-5-isoquinolinesulfonamide]",70 µM,0.67 µM,,,
"CN(C(Cc1ccc(OS(=O)(=O)c2cccc3cnccc23)cc1)CN1CCN(C(=O)OCc2ccccc2)CC1)S(=O)(=O)c1cccc2cnccc12 (stereo not drawn) [Example 60, N-{2-(4-Benzyloxycarbonylpiperazinyl)-1-[P-(5-Isoquinolinesulfonyloxy)Benzyl]Ethyl}-N-Methyl-5-Isoquinolinesulfonamide]",10 µM,,,,
"CN(C(Cc1ccc(OS(=O)(=O)c2cccc3cnccc23)cc1)CN1CCN(S(=O)(=O)c2ccccc2)CC1)S(=O)(=O)c1cccc2cnccc12 (stereo not drawn) [Example 61, N-{2-[(4-Benzenesulfonyl)Piperazinyl]-1-[P-(5-Isoquinolinesulfonyloxy)Benzyl]Ethyl}-N-Methyl-5-Isoquinolinesulfonamide]",10 µM,,,,
"O=C(OCc1ccccc1)N1CCN(CC(Cc2ccc(O)cc2)NS(=O)(=O)c2cccc3cnccc23)CC1 (stereo not drawn) [Example 68, N-[2-(4-benzyloxycarbonylpiperazinyl)-1-(p-hydroxybenzyl)ethyl]-5-isoquinolinesulfonamide]",6 µM,3.3 ± 1.4 µM,,,
"O=C(NCc1ccccc1)N1CCN(CC(Cc2ccc(O)cc2)NS(=O)(=O)c2cccc3cnccc23)CC1 (stereo not drawn) [Example 71, N-[2-(4-benzylaminocarbonylpiperazinyl)-1-(p-hydroxybenzyl)ethyl]-5-isoquinolinesulfonamide]",93 µM,14 µM,,,
"CN(C(Cc1ccc(OS(=O)(=O)c2cccc3cnccc23)cc1)CN1CCN(C(=O)c2ccccc2)CC1)S(=O)(=O)c1cccc2cnccc12 (stereo not drawn) [Example 74, N-{2-(4-Benzoylpiperazinyl)-1-[P-(5-Isoquinolinesulfonyloxy)Benzyl]Ethyl}-N-Methyl-5-Isoquinolinesulfonamide]",2.8 µM,,,,
"CN(Cc1ccccc1)C1CCN(CC(Cc2ccc(O)cc2)N(C)S(=O)(=O)c2cccc3cnccc23)CC1 (stereo not drawn) [Example 97, N-{2-[4-(N-Benzyl-N-Methylamino)Piperidino]-1-(P-Hydroxybenzyl)Ethyl}-N-Methyl-5-Isoquinolinesulfonamide]",39 µM,,,,
CN(C(Cc1ccc(O)cc1)CN1CCCN(C(=O)OCc2ccccc2)CC1)S(=O)(=O)c1cccc2cnccc12 (stereo not drawn) [Example 113],20 µM,0.88 µM,1.2 µM,,
"CN(C(Cc1ccc(O)cc1)CN1CCCNCC1)S(=O)(=O)c1cccc2cnccc12 (stereo not drawn) [Example 114, N-[1-(p-hydroxy)benzyl-2-homopiperazinylethyl]-N-methyl-5-isoquinolinesulfonamide]",100 µM,54 µM,,,
"O=C(OCc1ccccc1)N1CCCN(C(=O)[C@H](Cc2ccc(O)cc2)NS(=O)(=O)c2cccc3cnccc23)CC1 [Example 123, 1-Benzyloxycarbonyl-4-[N-(5-Isoquinolinesulfonyl)Tyrosyl]Homopiperazine]",22 µM,4.8 µM,,,
"COc1ccc(N2CCN(CC(Cc3ccc(N4C(=O)c5ccccc5C4=O)cc3)N(C)S(=O)(=O)c3cccc4cnccc34)CC2)cc1 (stereo not drawn) [Example 126, N-{2-[4-(P-Methoxyphenyl)Piperazinyl]-1-(P-Phthalimidebenzyl)Ethyl}-N-Methyl-5-Isoquinolinesulfonamide]",10 µM,,,,
"COc1ccc(N2CCN(CC(Cc3ccc(N)cc3)NS(=O)(=O)c3cccc4cnccc34)CC2)cc1 (stereo not drawn) [Example 127, N-{1-(p-aminovenzyl)-2-[4-(p-methoxyphenyl)piperazinyl]ethyl}-5-isoquinolinesulfonamide]",39 µM,,,,

Compound,"IC50 [1, 4]","EC50 [2, 5]",IC50 [3],EC50 [2],IC50 [1]
"O=S(=O)(Nc1ccccc1NCC=Cc1cccnc1)c1cccc2cnccc12 [Example 145, N-{2-[3-(3-pyridyl)allylamino]phenyl}-5-isoquinolinesulfonamide]",12 µM,,,,
CC(C=Cc1ccc(Cl)cc1)NCCNS(=O)(=O)c1cccc2cnccc12 (stereo not drawn) [Example 153],25 µM,1.5 µM,,,
"CC(C=Cc1ccccc1)NCCNS(=O)(=O)c1cccc2cnccc12 (stereo not drawn) [Example 154, N-[2-(α-Methylcinnamylamino)Ethyl]-5-Isoquinolinesulfonamide]",60 µM,,,,
CC(C=Cc1ccc(F)cc1F)NCCNS(=O)(=O)c1cccc2cnccc12 (stereo not drawn) [Example 155],55 µM,4.1 µM,,,
"CC(C=Cc1ccc(Cl)cc1Cl)NCCNS(=O)(=O)c1cccc2cnccc12 (stereo not drawn) [Example 156, N-[2-(2,4-Dichloro-α-Methylcinnamylamino)Ethyl]-5-Isoquinolinesulfonamide]",19 µM,4.4 µM,19 µM,,
CC(C=Cc1cccc(Cl)c1)NCCNS(=O)(=O)c1cccc2cnccc12 (stereo not drawn) [Example 157],36 µM,3.2 µM,8.6 µM,,
CC(C=Cc1ccc([N+](=O)[O-])cc1)NCCNS(=O)(=O)c1cccc2cnccc12 (stereo not drawn) [Example 159],24 µM,5.1 µM,92 µM,,
Cc1ccc(C=CC(C)NCCNS(=O)(=O)c2cccc3cnccc23)cc1 (stereo not drawn) [Example 160],56 µM,1.8 µM,,,
"CC(C=Cc1ccc(F)cc1)NCCNS(=O)(=O)c1cccc2cnccc12 (stereo not drawn) [Example 166, N-[2-(4-Fluoro-α-Methylcinnamylamino)Ethyl]-5-Isoquinolinesulfonamide]",90 µM,1.4 µM,,,
CC(C=Cc1ccc(Br)cc1)NCCNS(=O)(=O)c1cccc2cnccc12 (stereo not drawn) [Example 167],52 µM,1.2 µM,,,
CC(C=Cc1ccc(C(C)C)cc1)NCCNS(=O)(=O)c1cccc2cnccc12 (stereo not drawn) [Example 168],26 µM,3.6 µM,,,
"O=S(=O)(NCCNCC=Cc1ccc(Cl)cc1)c1cccc2cnccc12 [Example 172, N-[2-(4-Chlorocinnamylamino)ethyl]-5-Isoquinolinesulfonamide]",51 µM,1 µM,9.4 µM,,
"O=S(=O)(NCCNCC=Cc1ccc(Br)cc1)c1cccc2cnccc12 [Example 176, N-[2-(4-Bromophenylcinnamylamino)ethyl]-5-Isoquinolinesulfonamide]",,,8.5 µM,1.2 µM,55 µM
CC(C)c1ccc(C=CCNCCNS(=O)(=O)c2cccc3cnccc23)cc1 [Example 177],56 µM,2.7 µM,24 µM,,
"O=S(=O)(NCCNCC=Cc1ccc(C(F)(F)F)cc1)c1cccc2cnccc12 [Example 179, N-[2-(4-Trifluoromethylcinnamylamino)Ethyl]-5-Isoquinolinesulfonamide]",51 µM,2.8 µM,7.8 µM,,
O=S(=O)(NCCNCC=CC=CC=Cc1ccc(C(F)(F)F)cc1)c1cccc2cnccc12 [Example 181],38 µM,8.4 µM,4.7 µM,,
